Experimental data taken from patent US8153821B2, “Compounds” (priority 2008, dated 2012).
pEC50, pIC50, pKi: −log10 of the molar value.

Experiments:
hERG = target: T1, hERG (Homo sapiens, UniProt Q12809); assay: cell-based
T1 construct: expressed in transfected cells; host or cells: HEK-239 (so in the source)

CYP3A4 = CYP3A4 (Homo sapiens, UniProt P08684); format: in vitro ADME
[1] = tested on: rats with scopolamine-induced cognitive deficits; assay: Radial arm maze (RAM), scopolamine-induced deficit; format: in vivo, rat; conditions: 0.03 mg/kg or 0.1 μmol/kg p.o. 0.5 h prior to test trial, scopolamine 0.3±0.1 mg/kg s.c.
Method: Working memory was assessed in a radial arm maze (RAM) task. The RAM task was conducted using an automated eight-arm maze (Med Associates, Inc.) The maze was located on a circular table approximately 88 cm above the floor with overhead lighting in a dedicated testing ambient and large, high contrast geometric shapes on the wall. Furthermore, additional visual cues were located at the hub entry into each arm, above each the food hopper and on the ceiling. The central platform measured 30.5 cm in diameter with eight arms (9 cm W×45.7 cm L×16.8 cm H) radiating from it. Automatic guillotine doors were located at the entrance to each runway with a pellet receptacle at the distal end of each arm. White noise will be audible during all training and testing procedures. Activity on the maze was monitored by tracking quantitative activity (generated by infra-red beam breaks) on the computer interface and monitor screen.
Following the baseline assessment and after re-attainment test session criterion, animals were assessed for their sensitivity to chemically-induced cognitive impairment using the muscarinic antagonist scopolamine (0.2-0.4 mg/kg; s.c.). A dose of scopolamine was determined for each animal based on the minimum dose that produced significant and reliable cognitive impairment. […]

[2] = target: T2, human native ganglion-type nicotinic receptors (likely α3β4) (Homo sapiens, UniProt P30926+P32297); assay: [3H]epibatidine binding, SH-SY5Y membranes
T2 construct: human native ganglion-type nicotinic receptors (likely α3β4); endogenous in cells; host or cells: SH-SY5Y
T2 sequence (P30926 22-498): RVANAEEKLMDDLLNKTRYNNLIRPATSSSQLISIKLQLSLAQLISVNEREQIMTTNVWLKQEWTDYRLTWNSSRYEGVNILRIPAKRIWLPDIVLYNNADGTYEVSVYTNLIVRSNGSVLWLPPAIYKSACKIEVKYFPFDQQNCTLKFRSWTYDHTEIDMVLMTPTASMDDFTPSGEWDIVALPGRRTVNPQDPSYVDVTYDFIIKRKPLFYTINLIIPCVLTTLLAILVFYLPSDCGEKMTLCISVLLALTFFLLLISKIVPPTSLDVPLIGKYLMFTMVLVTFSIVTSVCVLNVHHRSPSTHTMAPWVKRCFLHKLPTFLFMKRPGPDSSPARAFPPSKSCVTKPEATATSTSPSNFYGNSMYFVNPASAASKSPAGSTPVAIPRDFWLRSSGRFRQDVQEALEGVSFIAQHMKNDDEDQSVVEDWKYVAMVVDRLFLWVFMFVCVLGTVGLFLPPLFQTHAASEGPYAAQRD
T2 sequence (P32297 32-505): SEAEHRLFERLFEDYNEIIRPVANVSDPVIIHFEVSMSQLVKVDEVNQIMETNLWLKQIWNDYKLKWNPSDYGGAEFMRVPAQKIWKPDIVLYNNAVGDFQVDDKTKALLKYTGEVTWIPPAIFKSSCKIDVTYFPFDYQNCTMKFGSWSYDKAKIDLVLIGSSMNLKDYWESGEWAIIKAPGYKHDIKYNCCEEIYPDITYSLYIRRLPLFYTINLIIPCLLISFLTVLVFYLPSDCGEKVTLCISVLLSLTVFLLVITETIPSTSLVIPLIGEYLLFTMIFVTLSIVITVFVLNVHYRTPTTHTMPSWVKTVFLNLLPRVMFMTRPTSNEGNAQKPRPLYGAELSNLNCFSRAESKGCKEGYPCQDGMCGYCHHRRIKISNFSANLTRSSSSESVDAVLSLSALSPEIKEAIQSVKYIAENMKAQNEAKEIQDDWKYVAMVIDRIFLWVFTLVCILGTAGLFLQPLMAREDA

[3] = tested on: CYP1A2, CYP2C9, CYP2C19, CYP2D6, CYP3A4 (5 major CYPs); assay: in vitro; format: in vitro ADME; conditions: human
Method: Inhibition of CYP1A2, CYP2C9, CYP2C19, CYP2D6 and CYP3A4 catalytic activity by (R)-3-((E)-2-(pyrrolidin-3-yl)vinyl)-5-(tetrahydropyran-4-yloxy)pyridine or a slat thereof was assessed using a fluorogenic CYP assay. Probe substrates which fluoresce upon CYP catalyzed oxidation were used to evaluate the degree of inhibition of the test substrate. A single concentration of each probe substrate (at approximately the apparent Km value) and two different concentrations of (R)-3-((E)-2-(pyrrolidin-3-yl)vinyl)-5-(tetrahydropyran-4-yloxy)pyridine hemigalactarate (2 and 20 μM) were tested in duplicate. Fluorescence intensity at selected wavelengths was used as a measure of enzyme activity. Decreased fluorescence in the presence of (R)-3-((E)-2-(pyrrolidin-3-yl)vinyl)-5-(tetrahydropyran-4-yloxy)pyridine or a sat thereof was an indication of inhibition. […] Duplicate samples were run alongside the positive and negative controls. Incubation of test samples was performed at 37° C. Experimental parameters are outlined in Table 2.

α4β2 = α4β2 (Homo sapiens, UniProt P17787+P43681); assay: Calcium flux assay, SH-EP1/human α4β2 cells; format: cell-based; design: expressed in transfected cells; host or cells: SH-EP1
Chain of α4β2 (P43681 29-627 limits assumed): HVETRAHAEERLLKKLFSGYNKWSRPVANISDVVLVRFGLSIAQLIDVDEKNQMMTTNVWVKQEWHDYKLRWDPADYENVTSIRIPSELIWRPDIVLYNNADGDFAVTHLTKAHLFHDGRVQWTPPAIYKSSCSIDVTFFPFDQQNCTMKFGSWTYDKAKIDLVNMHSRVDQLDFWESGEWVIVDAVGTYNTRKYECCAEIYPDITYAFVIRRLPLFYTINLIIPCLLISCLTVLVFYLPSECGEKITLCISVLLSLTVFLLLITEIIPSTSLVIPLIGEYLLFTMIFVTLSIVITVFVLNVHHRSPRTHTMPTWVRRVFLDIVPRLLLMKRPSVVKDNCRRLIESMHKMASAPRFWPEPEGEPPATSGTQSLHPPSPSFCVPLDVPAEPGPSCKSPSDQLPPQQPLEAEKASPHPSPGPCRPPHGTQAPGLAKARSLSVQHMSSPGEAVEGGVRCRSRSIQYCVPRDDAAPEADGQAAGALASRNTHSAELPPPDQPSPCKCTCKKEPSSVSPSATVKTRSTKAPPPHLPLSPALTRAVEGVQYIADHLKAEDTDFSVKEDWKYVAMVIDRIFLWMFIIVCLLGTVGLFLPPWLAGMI
Chain of α4β2 (P17787 26-502): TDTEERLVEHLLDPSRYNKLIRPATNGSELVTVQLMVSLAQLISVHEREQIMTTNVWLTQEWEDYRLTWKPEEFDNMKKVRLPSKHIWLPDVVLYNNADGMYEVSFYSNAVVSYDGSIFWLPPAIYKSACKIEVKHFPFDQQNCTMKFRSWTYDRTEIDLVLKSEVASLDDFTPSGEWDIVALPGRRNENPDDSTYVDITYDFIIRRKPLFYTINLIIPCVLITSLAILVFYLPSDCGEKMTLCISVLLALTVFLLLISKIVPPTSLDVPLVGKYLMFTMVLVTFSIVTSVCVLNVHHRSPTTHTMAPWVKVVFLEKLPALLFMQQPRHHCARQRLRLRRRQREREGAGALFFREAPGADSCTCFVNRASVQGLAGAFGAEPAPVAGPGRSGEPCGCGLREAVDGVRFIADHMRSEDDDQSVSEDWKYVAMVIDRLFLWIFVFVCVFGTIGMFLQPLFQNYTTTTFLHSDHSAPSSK
Source text: Cellular efficacy: The aim of these studies was to determine functional activity of (R)-3-((E)-2-(pyrrolidin-3-yl)vinyl)-5-(tetrahydropyran-4-yloxy)pyridine or a salt thereof at human recombinant α4β2 receptors.

panel of 65 receptors = assay: Multiple receptor screening assay; format: binding; conditions: single concentration of 10 μM
Method: (R)-3-((E)-2-(Pyrrolidin-3-yl)vinyl)-5-(tetrahydropyran-4-yloxy)pyridine or a salt thereof was tested for selectivity against a panel of 65 receptors.

CYP1A2 = CYP1A2 (Homo sapiens, UniProt P05177); format: in vitro ADME
Chain of CYP1A2 (P05177 whole entry): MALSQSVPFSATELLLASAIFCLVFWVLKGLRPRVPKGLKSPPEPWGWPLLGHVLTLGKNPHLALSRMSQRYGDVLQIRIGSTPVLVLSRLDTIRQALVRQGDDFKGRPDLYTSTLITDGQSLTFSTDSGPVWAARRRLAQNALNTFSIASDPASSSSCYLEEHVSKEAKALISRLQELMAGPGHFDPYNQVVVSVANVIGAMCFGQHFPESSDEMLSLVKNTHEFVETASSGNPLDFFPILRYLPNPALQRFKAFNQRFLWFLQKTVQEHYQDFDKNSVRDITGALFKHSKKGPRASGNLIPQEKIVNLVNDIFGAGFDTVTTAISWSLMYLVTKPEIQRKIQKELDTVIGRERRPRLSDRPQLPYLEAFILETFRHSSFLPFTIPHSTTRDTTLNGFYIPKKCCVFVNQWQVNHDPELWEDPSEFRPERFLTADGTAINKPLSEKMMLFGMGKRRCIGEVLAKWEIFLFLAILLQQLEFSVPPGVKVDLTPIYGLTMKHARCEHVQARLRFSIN

[4] = target: T3, human native muscle receptors (Homo sapiens, UniProt P02708+P07510+Q07001); assay: Ca flux assay, TE-671 cells; format: cell-based
T3 construct: human native muscle-type nicotinic receptors (likely α1β1γδ); endogenous in cells; host or cells: TE-671 (TE671/RD)
T3 sequence (P02708 21-457): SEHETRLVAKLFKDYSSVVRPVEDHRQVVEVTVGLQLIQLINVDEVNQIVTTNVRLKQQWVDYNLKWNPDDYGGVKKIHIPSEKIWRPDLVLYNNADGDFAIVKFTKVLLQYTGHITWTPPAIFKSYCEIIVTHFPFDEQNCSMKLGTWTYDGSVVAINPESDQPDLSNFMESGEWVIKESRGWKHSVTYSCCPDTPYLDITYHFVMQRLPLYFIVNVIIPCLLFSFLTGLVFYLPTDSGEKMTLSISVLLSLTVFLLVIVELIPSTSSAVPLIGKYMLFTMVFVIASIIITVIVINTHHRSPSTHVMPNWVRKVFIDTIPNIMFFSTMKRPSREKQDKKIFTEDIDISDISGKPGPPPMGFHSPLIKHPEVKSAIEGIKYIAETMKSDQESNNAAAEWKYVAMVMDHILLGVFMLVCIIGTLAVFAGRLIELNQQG
T3 sequence (P11230 24-501 partner): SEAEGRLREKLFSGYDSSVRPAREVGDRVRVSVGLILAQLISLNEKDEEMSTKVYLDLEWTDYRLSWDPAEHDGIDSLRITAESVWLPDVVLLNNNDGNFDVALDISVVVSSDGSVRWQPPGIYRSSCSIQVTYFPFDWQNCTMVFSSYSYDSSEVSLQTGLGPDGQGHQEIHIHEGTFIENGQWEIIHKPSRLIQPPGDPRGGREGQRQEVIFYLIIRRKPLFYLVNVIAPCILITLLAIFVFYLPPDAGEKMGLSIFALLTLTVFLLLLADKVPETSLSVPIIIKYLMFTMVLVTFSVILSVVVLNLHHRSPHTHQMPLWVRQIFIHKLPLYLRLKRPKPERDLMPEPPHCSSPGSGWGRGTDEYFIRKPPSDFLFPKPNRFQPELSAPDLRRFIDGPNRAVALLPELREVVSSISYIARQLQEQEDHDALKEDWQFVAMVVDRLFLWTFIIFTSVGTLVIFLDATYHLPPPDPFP
T3 sequence (P07510 23-517): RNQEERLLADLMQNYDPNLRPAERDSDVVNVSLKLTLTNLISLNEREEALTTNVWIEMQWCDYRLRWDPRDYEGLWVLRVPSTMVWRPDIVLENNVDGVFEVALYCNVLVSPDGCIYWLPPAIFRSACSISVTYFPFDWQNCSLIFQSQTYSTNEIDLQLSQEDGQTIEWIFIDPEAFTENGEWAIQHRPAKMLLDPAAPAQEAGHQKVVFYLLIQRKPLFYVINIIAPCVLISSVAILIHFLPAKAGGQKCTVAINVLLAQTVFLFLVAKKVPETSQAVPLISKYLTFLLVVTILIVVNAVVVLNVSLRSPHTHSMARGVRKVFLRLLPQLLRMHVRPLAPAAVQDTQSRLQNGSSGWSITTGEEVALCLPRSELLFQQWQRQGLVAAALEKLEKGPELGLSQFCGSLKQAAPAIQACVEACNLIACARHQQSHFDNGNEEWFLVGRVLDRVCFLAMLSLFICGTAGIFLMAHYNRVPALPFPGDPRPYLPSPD
T3 sequence (Q07001 22-517): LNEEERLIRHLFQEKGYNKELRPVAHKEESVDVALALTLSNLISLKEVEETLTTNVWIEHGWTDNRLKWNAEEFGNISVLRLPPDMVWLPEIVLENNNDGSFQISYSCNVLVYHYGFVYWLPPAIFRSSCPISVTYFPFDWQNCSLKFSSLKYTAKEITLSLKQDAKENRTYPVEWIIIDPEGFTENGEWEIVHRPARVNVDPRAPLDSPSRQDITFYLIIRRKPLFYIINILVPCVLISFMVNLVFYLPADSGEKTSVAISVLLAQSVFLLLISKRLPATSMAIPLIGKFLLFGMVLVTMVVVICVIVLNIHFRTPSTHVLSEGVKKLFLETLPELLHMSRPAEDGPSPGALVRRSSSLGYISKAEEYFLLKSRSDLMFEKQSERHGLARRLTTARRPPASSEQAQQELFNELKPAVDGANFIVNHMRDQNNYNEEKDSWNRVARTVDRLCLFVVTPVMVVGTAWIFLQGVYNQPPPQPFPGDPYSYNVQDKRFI
Source text: Activation of muscle-type nAChRs was established on the human clonal line TE671/RD, which is derived from an embryonal rhabdomyosarcoma (Stratton et al., Carcinogen 10: 899 (1989)). These cells express receptors that have pharmacological (Lukas, J. Pharmacol. Exp. Ther. 251: 175 (1989)), electrophysiological (Oswald et al., Neurosci. Lett. 96: 207 (1989)), and molecular biological profiles (Luther et al., J. Neurosci. 9: 1082 (1989)) similar to the muscle-type nAChR.
(R)-3-((E)-2-(Pyrrolidin-3-yl)vinyl)-5-(tetrahydropyran-4-yloxy)pyridine or a salt thereof was tested in ganglion and muscle-type nicotinic receptor ion flux assays to examine functional selectivity.

Chain of CYP3A4 (P08684 whole entry): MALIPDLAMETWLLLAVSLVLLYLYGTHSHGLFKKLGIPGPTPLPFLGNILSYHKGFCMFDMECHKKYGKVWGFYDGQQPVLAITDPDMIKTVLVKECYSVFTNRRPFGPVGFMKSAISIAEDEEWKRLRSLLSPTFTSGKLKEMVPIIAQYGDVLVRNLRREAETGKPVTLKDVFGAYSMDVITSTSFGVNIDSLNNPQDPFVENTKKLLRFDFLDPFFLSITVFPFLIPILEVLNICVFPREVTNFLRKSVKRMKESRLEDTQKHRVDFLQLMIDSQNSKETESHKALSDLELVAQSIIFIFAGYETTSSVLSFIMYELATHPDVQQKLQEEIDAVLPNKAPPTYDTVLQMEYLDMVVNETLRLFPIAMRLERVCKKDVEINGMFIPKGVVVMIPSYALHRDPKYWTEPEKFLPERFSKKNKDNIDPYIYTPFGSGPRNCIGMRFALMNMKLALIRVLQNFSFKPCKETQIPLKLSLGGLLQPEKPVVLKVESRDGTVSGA

Structure (SMILES): C(=C\[C@H]1CCNC1)/c1cncc(OC2CCOCC2)c1 [Compound A, (R)-3-((E)-2-(pyrrolidin-3-yl)vinyl)-5-(tetrahydropyran-4-yloxy)pyridine]
- pIC50 (hERG): 4.08
- time-dependent inhibition of CYP3A4 (CYP3A4): no evidence of time-dependent inhibition
- RAM effect on scopolamine-induced cognitive deficits [1]: overcomes scopolamine induced deficits
- RAM effect on scopolamine-induced cognitive deficits ([1]; listed as (R)-3-((E)-2-(Pyrrolidin-3-yl)vinyl)-5-(tetrahydropyran-4-yloxy)pyridine): able to reverse scopolamine-induced cognitive deficits
- pKi [2]: 5.47
- pIC50 [3]: < 4.70
- pEC50 (α4β2): 7.00
- Emax (α4β2; SH-EP1, read-out: Human recombinant (SH-EP 1) α4β2 Emax (Ca flux)): 76%
- Human recombinant (SH-EP 1) α4β2 Emax (Ca flux) (α4β2; in relation to 10 μM nicotine, 24-h incubation at 29° C.): μM, 76%
- Multiple receptor screening assay, receptors hit (panel of 65 receptors): only to neuronal nicotinic receptors (α-BnTx insensitive)
- Multiple receptor screening assay, receptors hit (panel of 65 receptors; listed as (R)-3-(2-(pyrrolidin-3-yl)vinyl)-5-((tetrahydro-2H-pyran-4 yl)oxy)pyridine): Only nicotinic
- time-dependent inhibition of CYP1A2 (CYP1A2): no evidence of time-dependent inhibition
- pEC50 [4]: 4.89
- Human (TE671/RD) muscle Emax (Ca flux) ([4]; TE-671 cells): μM, 37%
- Emax ([4]; TE-671 cells, read-out: Human (TE671/RD) muscle Emax (Ca flux)): 37%
